Test results: patent US12226401B2, “Molecular genetic approach to treatment and diagnosis of alcohol and drug dependence” (priority 2010, dated 2025)

Tested on: alcohol dependent individuals
Assay: Randomized, double-blind, placebo-controlled, 12-week clinical trial of ondansetron vs placebo in alcohol dependent individuals by genotype: drinks per drinking day (DDD)
Type: in vivo, human
Conditions: for Least Squares Mean of Drinks per Drinking Days, Estimated Mean: Table 4B; for Least Squares Mean Difference, Drinks per Drinking Days, OND vs. Placebo: all patients (treatment main effect); for Log mean Drinks/Drinking Day: natural log
Method: Two hundred and seventy eight male and female alcohol dependent individuals were entered into a randomized, double-blind, placebo-controlled, 12-week clinical trial. These individuals were divided into TT vs. […] The polymorphisms in 3''-UTR region of a gene may affect mRNA expression levels by altering their stability. […] Data was transformed to its natural log to correct for skewness. […] In total, ten SNPs in 5HT3a and nine SNPs in 5HT3b genes were analyzed in this study: […]

Cc1nccn1CC1CCc2c(c3ccccc3n2C)C1=O (stereo not drawn) [ondansetron, 9-methyl-3-[(2-methyl-1H-imidazol-1-yl)methyl]-1,2,3,9-tetrahydrocarbazol-4-one]
Least Squares Mean, Drinks per Drinking Days (RS17614942 CC): 6.03 | Least Squares Mean, Drinks per Drinking Days (RS17614942 CC/AA): 6.09 | Estimate, OND vs. Placebo, drinks per drinking days (DDD) (TT + AA (RS1042173, RS1176719)): −7.12 DDD | Estimate, OND vs. Placebo, drinks per drinking days (DDD) (TT + AC (RS1042173, RS17614942)): −3.37 DDD | Estimate, OND vs. Placebo, drinks per drinking days (DDD) (TT + AG (RS1042173, RS1150226)): −2.00 DDD | Estimate, OND vs. Placebo, drinks per drinking days (DDD) (TT + AG + AC (RS1042173, RS1150226, RS17614942)): −2.24 DDD | Estimate, OND vs. Placebo, drinks per drinking days (DDD) (TT + GG (RS1042173, RS1176713)): −6.42 DDD | Estimate, OND vs. Placebo, drinks per drinking days (DDD) (TT or AA or AC (RS1042173, RS1176719, RS17614942)): −1.08 DDD | Estimate, OND vs. Placebo, drinks per drinking days (DDD) (TT or AC (RS1042173, RS17614942)): −1.07 DDD | Estimate, OND vs. Placebo, drinks per drinking days (DDD) (TT or AG (RS1042173, RS1150226)): −1.02 DDD | Estimate, OND vs. Placebo, drinks per drinking days (DDD) (TT or AG or AC (RS1042173, RS1150226, RS17614942)): −0.99 DDD | Estimate, OND vs. Placebo, drinks per drinking days (DDD) (TT or AG or GG (RS1042173, RS1150226, RS1176713)): −1.12 DDD | Estimate, OND vs. Placebo, drinks per drinking days (DDD) (TT or GG (RS1042173, RS1176713)): −1.02 DDD | Estimate, OND vs. Placebo, drinks per drinking days (DDD) (TT or GG or AC (RS1042173, RS1176713, RS17614942)): −1.12 DDD | Least Squares Mean Difference, Estimated Mean Difference, AG vs. GG/AA (Table 3G, among OND-treated subjects, AG vs. GG/AA genotype): −1.90 | Least Squares Mean of Drinks per Drinking Days, Estimated Mean (Others (AA/GG and AA/CC), n = 112): 6.12 | Least Squares Mean of Drinks per Drinking Days, Estimated Mean (RS1150226 AG or RS17614942 AC carriers, n = 23): 4.19 | Least Squares Mean of Drinks per Drinking Days, Estimated Mean (all OND subjects, RS1150226 (AG) or RS17614942 (AC) analysis): 5.16 | Least Squares Mean Difference between Treatment and Placebo, Estimated Mean Difference (Table 4C, OND vs. Placebo among AG or/and AC (RS1150226 AG, RS17614942 AC)): −2.12 | Least Squares Mean Difference between Treatment and Placebo, Estimated Mean Difference (Table 4C, OND vs. Placebo, all genotypes (main effect)): −0.99 | Least Squares Mean Difference, Estimated Mean Difference, (AG or AC) vs. Others (Table 4C, among OND-treated subjects, (AG or AC) vs. Others): −1.91 | Least Squares Mean, Drinks per Drinking Days (all OND patients, model Comb (LL + TT or AC or AG) vs Others): 5.32 | Least Squares Mean, Drinks per Drinking Days (all OND patients, model RS1150226 (GG, AG/AA)): 5.15 | Least Squares Mean, Drinks per Drinking Days (all OND patients, model RS1150226 (GG/AA, AG)): 5.13 | Least Squares Mean, Drinks per Drinking Days (all OND patients, model RS17614942 (CC, AC/AA)): 4.96 | Least Squares Mean, Drinks per Drinking Days (all OND patients, model RS17614942 (CC/AA, AC)): 4.98 | DDD reductions with OND (all four variants (LL, TT, AG, AC)): more than 4 DDD | Least Squares Mean Difference, Drinks per Drinking Days, OND vs. Placebo (model RS17614942 (CC, AC/AA)): −1.20 | Least Squares Mean Difference, Drinks per Drinking Days, OND vs. Placebo (model RS17614942 (CC/AA, AC)): −1.30 | Drinks per Drinking Days, Least Squares Estimated Mean Difference (among AC/AA: OND vs. Placebo, model RS17614942): −2.04 | Drinks per Drinking Days, Least Squares Estimated Mean Difference (among AC/AA: OND vs. Placebo, model RS17614942 and 5-HTTLPR): −2.13 | Drinks per Drinking Days, Least Squares Estimated Mean Difference (among CT/TT: OND vs. Placebo, model RS4938056 and 5-HTTLPR): −0.81 | Drinks per Drinking Days, Least Squares Estimated Mean Difference (among LL: OND vs. Placebo, model 5-HTTLPR and RS1062613): −1.29 | Drinks per Drinking Days, Least Squares Estimated Mean Difference (among LL: OND vs. Placebo, model 5-HTTLPR and RS1150226): −1.47 | Drinks per Drinking Days, Least Squares Estimated Mean Difference (among LL: OND vs. Placebo, model RS17614942 and 5-HTTLPR): −1.86 | Drinks per Drinking Days, Least Squares Estimated Mean Difference (among OND: AC/AA vs. CC, model RS17614942): −1.60 | Drinks per Drinking Days, Least Squares Estimated Mean Difference (among OND: AC/AA vs. CC, model RS17614942 and 5-HTTLPR): −1.45 | Drinks per Drinking Days, Least Squares Estimated Mean Difference (among OND: AG/AA vs. GG, model 5-HTTLPR and RS1150226): −1.25 | Drinks per Drinking Days, Least Squares Estimated Mean Difference (among OND: AG/AA vs. GG, model RS1150226): −1.47 | Drinks per Drinking Days, Least Squares Estimated Mean Difference (among OND: CT/TT vs. CC, model RS4938056): −1.24 | Drinks per Drinking Days, Least Squares Estimated Mean Difference (among OND: CT/TT vs. CC, model RS4938056 and 5-HTTLPR): −1.13 | Drinks per Drinking Days, Least Squares Estimated Mean Difference (among OND: LL + CT/TT vs. Others, simplified model): −1.64 | Drinks per Drinking Days, Least Squares Estimated Mean Difference (among OND: LL vs. LS/SS, model 5-HTTLPR and RS1062613): −1.39 | Drinks per Drinking Days, Least Squares Estimated Mean Difference (among OND: LL vs. LS/SS, model 5-HTTLPR and RS1150226): −1.27 | Drinks per Drinking Days, Least Squares Estimated Mean Difference (among OND: LL vs. LS/SS, model RS4938056 and 5-HTTLPR): −1.37 | Drinks per Drinking Days, Least Squares Estimated Mean Difference (among OND: LL vs. LS/SS, model RS17614942 and 5-HTTLPR): −1.33 | Drinks per Drinking Days, Least Squares Estimated Mean Difference (among OND: TC/CC vs. TT, model 5-HTTLPR and RS1062613): −1.05 | Drinks per Drinking Days, Least Squares Estimated Mean Difference (among OND: TC/CC vs. TT, model RS1062613): −1.06 | Drinks per Drinking Days, Least Squares Estimated Mean Difference (among TC/CC: OND vs. Placebo, model 5-HTTLPR and RS1062613): −1.10 | Drinks per Drinking Days, Least Squares Estimated Mean Difference (among TC/CC: OND vs. Placebo, model RS1062613): −0.90 | DDD reduction, OND compared to placebo (any one of three variants: 5-HTTLPR [LL], RS1150226 [AG], RS17614942 [AC]): at least 1.4 DDD | DDD reduction, OND compared to placebo (any two of the three variants (LL, AG, AC)): at least 2.4 DDD | DDD reductions with OND (any two of three variants: 5-HTTLPR (LL), RS1042173 (TT), RS1176713 (GG)): at least 2 DDD | DDD reductions with OND (either 5-HTTLPR (LL) or RS1176713 (GG)): at least 1.4 DDD | DDD reductions with OND (either one or two or three or four of the four variants (LL, TT, AG, AC)): at least 0.9 DDD | DDD reductions with OND (either three of the four variants (LL, TT, AG, AC)): more than 2 DDD | DDD reductions with OND (either two of four variants: 5-HTTLPR (LL), RS1042173 (TT), RS1150226 (AG), RS17614942 (AC)): at least 2 DDD | DDD reductions, OND compared to placebo (one or two of the three variants (LL, AG, AC)): about 1.4 DDD | Response to Ondansetron treatment (one or two or three of 5-HTTLPR [LL], RS1150226 [AG], RS17614942 [AC], 120 patients): seemed to respond | DDD reductions, OND compared to placebo (one or two or three of the three variants (LL, AG, AC)): at least 1.4 DDD | Response to OND treatment (one or two or three or four of 5-HTTLPR (LL), RS1042173 (TT), RS1176719 (AA), RS17614942 (AC)): likely to respond | DDD reductions with OND (one, or two or three of the three variants (LL, TT, RS1176713 GG)): at least 0.9 DDD | DDD reduction, OND compared with placebo groups (patients who had LL+TT or RS17614942 (AC) or RS1150226 (AG), 84 of 273 patients): at least 1.75 DDD | Estimate, OND vs. Placebo, drinks per drinking days (DDD) (patients with 5-HTTLPR (LL)): −1.41 DDD | DDD reductions, OND compared to placebo (patients with either 5-HTTLPR (LL) or RS1150226 (AG) or RS17614942 (AC)): at least 1.4 DDD | Log mean Drinks/Drinking Day (printed 'TT/GG and group' (rs1042173)): 1.68±0.07 Drinks/Drinking Day | Estimated mean DDD difference for OND vs. placebo (regardless of rs17614942 genotypes, 5HT3b cohort): −1.15 | Log mean difference in Drinks/Drinking Day, TTond vs TG/GG ond (rs1042173, among ondansetron recipients, 95% CI -0.53 to -0.13, p=0.002): −0.33 | Reducing severe drinking vs placebo (Log Drinks/Drinking day, mixed model) (rs1042173 TT genotype, ondansetron 4 mcg/kg, p=0.028): more beneficial than placebo | Log mean Drinks/Drinking Day (rs1042173 TT group that received ondansetron 4 mcg/kg): 1.36±0.10 Drinks/Drinking Day | Reduction of DDD by ondansetron, C-carriers compared with TT subjects (rs1062613 (5HT3a)): 1.17 sd | Reduction of DDD by ondansetron, AG/AA compared to GG subjects (rs1150226 (5HT3a)): 1.74 sd | Reduction of DDD by ondansetron, T-carriers compared with CC subjects (rs4938056 (5HT3b)): 1.30 sd | Reduction in DDD, AC/AA treated with ondansetron compared to CC subjects (rs17614942 (5HT3b)): 1.97 sd | Least Squares Mean Difference, Drinks per Drinking Days, AG/AA vs. GG (second AG/AA vs. GG line printed under Among OND, RS1150226): −0.98 | DDD reduction, OND compared to placebo (the three variants (LL, AG, AC)): at least 4 DDD | DDD reductions with OND (the three variants (LL, TT, RS1176713 GG)): at least 7 DDD | Reduction of DDD by ondansetron compared to the placebo (within AC/AA group of rs17614942): 2.41 sd | Reduction of DDD by ondansetron compared to the placebo (within AG/AA group of rs1150226): 1.57 sd | Least square Mean difference in DDD, ondansetron vs placebo (within LL+AC/AA group (5HTTLPR + rs17614942)): 3.6 sd | Least square Mean difference in DDD, ondansetron vs placebo (within LL+CT/TT group (5HTTLPR + rs4938056)): 1.74 sd
